Source: PMC8165744, “Identification of an Alternative Glycyrrhizin Metabolite Causing Liquorice-Induced Pseudohyperaldosteronism and the Development of ELISA System to Detect the Predictive Biomarker” (Frontiers in Pharmacology, 2021)

Columns and labels:
[1] = elimination of GA metabolites in SD rats intravenously injected with GA; type: in vivo, Sprague-Dawley (SD) rats; conditions: female SD rats
Description: Briefly, after diluting serum and urine samples with water to obtain suitable concentrations, they were digested with subtilisin (0.91 U/ml), followed by the addition of astragaloside IV (used as an internal standard; Fujifilm Wako Pure Chemicals, Osaka, Japan), and deproteinized using 80% ethanol. […] The transitions (precursor to daughter) monitored and retention times were as follows: ESI(+), 743.4 to 567.5 m/z (35 and 25 V for cone voltage and collision energy, respectively) for compound 1 (8.1 min); ESI(–), 565.5 to 96.5 m/z (80 and 60 V) for 2 (9.6 min); ESI(–), 549.5 to 96.5 m/z (80 and 60 V) for 3 (15.4 min); ESI(+), 727.3 to 551.2 m/z (30 and 25 V) for 4 (11.3 min); ESI(+), 647.6 to 453.6 m/z (40 and 20 V) for 3MGA (15.0 min); ESI(+), 471.3 to 91.0 m/z (40 and 20 V) for GA (13.4 min); ESI(+), 823.5 to 453.6 m/z (30 and 20 V) for GL (18.4 min); and ESI(+), 785.4 to 143.0 m/z (30 and 20 V) for astragaloside IV (3.0 min). Linear regressions over the concentration range of 2 nM to 2 µM for each compound were examined using the peak-area ratio of the compounds to their internal standards and the least-squares method (r ^ 2 > 0.98). The detection limits for 1, GL, and GA were 6.4 nM, and those for 2, 3, and 4, and 3MGA were 3.2 nM.
FIGURE 6 Elimination of glycyrrhizin (GL) metabolites into bile in Sprague-Dawley (SD) rats. Female SD rats (10 week-old) were anesthetized using intraperitoneal injection of urethane (1 g/kg), and biliary tracts were cannulated. […] Concentrations of GA metabolites were measured using liquid chromatography-tandem mass spectrometry (LC-MS/MS) and accumulated elimination of GA-metabolites are means ± standard error (S.E: n = 3).

[2] = relationship of serum concentration of compound 4 with laboratory markers and symptoms of pseudohyperaldosteronism; type: in vivo, human
Description: Evaluation of the Pathological Relationship Between Compound 4 and Pseudohyperaldosteronism Pathology
We recorded the following available clinical symptoms and laboratory data when blood samples were drawing from patients: age, sex, complications, concomitant medications, daily liquorice dose, duration of administration of liquorice-containing herbal preparations, symptoms (blood pressure and pedal oedema), and laboratory test values, namely: total protein, albumin, total and direct bilirubin, aspartate amino transferase, alanine amino transferase, blood urea nitrogen, creatinine, sodium, potassium, chloride, calcium, magnesium, prothrombin time, plasma renin activity or activated renin concentration, and plasma aldosterone concentration (blood test data), and urine concentrations of potassium and creatinine (urinalysis data). Samples were processed according to the individual institutional protocols, and all data were measured at each institution.
FIGURE 3 Concentration of 4 in human serum samples and three or laboratory markers (A) Strong positive correlation was identified between serum concentrations of 3 and 4.

human OAT3 = biological target: T1, human OAT3 (Homo sapiens, UniProt Q8TCC7); test: uptake into HEK293 cells transfected with OAT3; type: in vitro ADME; conditions: HEK293, EHBR plasma, 37°C, 15 min
T1 construct: expressed in transfected cells; host or cells: HEK293 cells, pCI-neo vector
T1 sequence (Q8TCC7 1-542): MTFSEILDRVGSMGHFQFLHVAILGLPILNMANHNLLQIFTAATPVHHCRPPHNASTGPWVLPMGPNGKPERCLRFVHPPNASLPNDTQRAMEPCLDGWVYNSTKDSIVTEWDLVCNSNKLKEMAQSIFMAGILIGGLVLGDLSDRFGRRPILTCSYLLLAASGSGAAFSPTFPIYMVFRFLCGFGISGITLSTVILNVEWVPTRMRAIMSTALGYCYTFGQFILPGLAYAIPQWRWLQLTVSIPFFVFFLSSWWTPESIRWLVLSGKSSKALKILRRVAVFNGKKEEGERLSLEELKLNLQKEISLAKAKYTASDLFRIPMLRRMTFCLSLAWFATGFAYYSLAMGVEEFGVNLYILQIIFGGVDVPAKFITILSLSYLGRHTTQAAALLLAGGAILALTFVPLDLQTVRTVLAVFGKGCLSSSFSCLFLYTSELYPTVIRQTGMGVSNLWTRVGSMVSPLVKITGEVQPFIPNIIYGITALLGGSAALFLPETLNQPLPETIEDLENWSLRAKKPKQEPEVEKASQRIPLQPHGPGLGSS
Description: Uptake of Compound 4 by Rat Kidney Slices and Cells Expressing OAT1 and 3
For the uptake study of 4 into rat kidney slices, we used the samples obtained in our previous study ([Ishiuchi et al., 2019]). For the uptake study of 4 into the cells transiently expressing OAT1 and OAT3, we used the same protocol as in our previous study ([Makino et al., 2012]). cDNAs encoding human OAT1 and OAT3 inserted into pGH19 were generously supplied by Prof. Mitsuru Sugawara (Hokkaido University, Sapporo, Japan), and then subcloned into a pCI-neo mammalian expression vector (Promega, Madison, WI, United States). We used the same pooled plasma of male EHBRs orally treated with GA for 12 h used in our previous study ([Ishiuchi et al., 2019]).
FIGURE 2 Inhibitory effects of compound 4 on type-2 11β-hydroxysteroid dehydrogenase (11β-HSD2) using rat kidney microsome (A), and the uptake of 4 into rat kidney slices (B) or into HEK293 cells transfected with organic anion transporter (OAT) 1 (C) or OAT3 (D). […] Then, the amount of [^3H] cortisol was measured. […] Concentrations of 4 in kidney slice homogenates were measured using liquid chromatography-tandem mass spectrometry (LC-MS/MS). **p < 0.01 vs 4°C group using Student’s t-test (C) Male EHBRs were orally treated with GA (200 mg/kg) and their plasma samples were collected […] after treatment. […] Then, concentrations of 4 in cells were measured using LC-MS/MS. […]

accumulation in the bile ([1]; GA 0.2 mg/kg iv, bile collected for 4 h): the highest
accumulative elimination in faeces ([1]; GA iv, faeces collected 24 h after injection): below detectable levels
correlation of serum concentration with plasma renin activity and aldosterone concentration ([2]; human serum samples): negative correlations
serum potassium concentration in participants with higher serum concentrations ([2]; human serum samples): tended to be lower
uptake into cells expressing OAT3 vs mock cells (human OAT3): significantly higher
SMILES: CC1(C)[C@@H](OS(=O)(=O)O)CC[C@]2(C)[C@H]3C(=O)C=C4[C@@H]5C[C@@](C)(C(=O)O[C@@H]6O[C@H](C(=O)O)[C@@H](O)[C@H](O)[C@H]6O)CC[C@]5(C)CC[C@@]4(C)[C@]3(C)CC[C@@H]12 [Compound 4, 18β-glycyrrhetyl-3-O-sulfate-30-O-glucuronide]
relationship with clinical symptoms ([2]; blood pressure, oedema): not significant
